Experimental data as given in the kinase profiling compilation of Christmann-Franck et al. (2016).

Assays:
Experiment in all cases: KINOMEscan competition binding
ADCK3 (human) = ADCK3 (human) (UniProt Q8NI60); settings: compound 1.0 µM
AKT3 (human) = AKT3 (human) (UniProt Q9Y243); settings: compound 1.0 µM
BMPR1B (human) = BMPR1B (human) (UniProt O00238); settings: compound 1.0 µM
BRAF (human) = BRAF (human) (UniProt P15056); settings: compound 1.0 µM
CAMK1G (human) = CAMK1G (human) (UniProt Q96NX5); settings: compound 1.0 µM
CAMK2B (human) = CAMK2B (human) (UniProt Q13554); settings: compound 1.0 µM
CAMK4 (human) = CAMK4 (human) (UniProt Q16566); settings: compound 1.0 µM
CAMKK2 (human) = CAMKK2 (human) (UniProt Q96RR4); settings: compound 1.0 µM
Sequence of CAMKK2 (human) (Q96RR4 whole entry, looked up): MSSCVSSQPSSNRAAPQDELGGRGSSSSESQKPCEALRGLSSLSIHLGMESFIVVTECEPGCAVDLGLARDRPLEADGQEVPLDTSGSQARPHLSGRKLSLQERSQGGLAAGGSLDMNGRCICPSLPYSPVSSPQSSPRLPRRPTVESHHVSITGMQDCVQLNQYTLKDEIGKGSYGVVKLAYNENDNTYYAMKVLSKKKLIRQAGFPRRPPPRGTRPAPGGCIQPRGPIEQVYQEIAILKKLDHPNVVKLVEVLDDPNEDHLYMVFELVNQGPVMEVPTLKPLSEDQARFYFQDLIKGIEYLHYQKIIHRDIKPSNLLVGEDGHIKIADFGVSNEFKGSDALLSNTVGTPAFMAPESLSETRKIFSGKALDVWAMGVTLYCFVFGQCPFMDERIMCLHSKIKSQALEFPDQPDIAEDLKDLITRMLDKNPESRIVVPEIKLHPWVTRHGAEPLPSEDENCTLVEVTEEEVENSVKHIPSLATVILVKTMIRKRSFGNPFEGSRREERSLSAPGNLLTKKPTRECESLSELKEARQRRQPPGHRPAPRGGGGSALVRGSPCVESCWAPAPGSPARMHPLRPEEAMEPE

CDC42BPA (human) = CDC42BPA (human) (UniProt Q5VT25); settings: compound 1.0 µM
CDK13 (human) = CDK13 (human) (UniProt Q14004); settings: compound 1.0 µM
CHEK2 (human) = CHEK2 (human) (UniProt O96017); settings: compound 1.0 µM
[1] = tested on: EGFR (human), P00533 [G719C]; settings: compound 1.0 µM
EPHB4 (human) = EPHB4 (human) (UniProt P54760); settings: compound 1.0 µM
FGFR2 (human) = FGFR2 (human) (UniProt P21802); settings: compound 1.0 µM
LIMK1 (human) = LIMK1 (human) (UniProt P53667); settings: compound 1.0 µM
MAP3K12 (human) = MAP3K12 (human) (UniProt Q12852); settings: compound 1.0 µM
MAP3K4 (human) = MAP3K4 (human) (UniProt Q9Y6R4); settings: compound 1.0 µM
MAPK12 (human) = MAPK12 (human) (UniProt P53778); settings: compound 1.0 µM
MAPK8 (human) = MAPK8 (human) (UniProt P45983); settings: compound 1.0 µM
Sequence of MAPK8 (human) (P45983 whole entry, looked up): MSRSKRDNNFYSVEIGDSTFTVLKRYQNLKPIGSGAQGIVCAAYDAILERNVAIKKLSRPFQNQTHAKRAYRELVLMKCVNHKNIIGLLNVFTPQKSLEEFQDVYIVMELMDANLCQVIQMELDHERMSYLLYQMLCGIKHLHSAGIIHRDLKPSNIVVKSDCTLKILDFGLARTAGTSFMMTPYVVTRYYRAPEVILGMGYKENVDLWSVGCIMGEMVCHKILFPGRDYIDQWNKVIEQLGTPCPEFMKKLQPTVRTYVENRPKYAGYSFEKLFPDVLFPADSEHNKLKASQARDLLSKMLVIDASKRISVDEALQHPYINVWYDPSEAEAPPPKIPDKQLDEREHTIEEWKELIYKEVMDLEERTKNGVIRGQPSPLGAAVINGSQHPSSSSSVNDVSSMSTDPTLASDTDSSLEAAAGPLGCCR

MARK1 (human) = MARK1 (human) (UniProt Q9P0L2); settings: compound 1.0 µM
MARK3 (human) = MARK3 (human) (UniProt P27448); settings: compound 1.0 µM
MLTK (human) = MLTK (human) (UniProt Q9NYL2); settings: compound 1.0 µM
NIM1 (human) = NIM1 (human) (UniProt Q8IY84); settings: compound 1.0 µM
NTRK2 (human) = NTRK2 (human) (UniProt Q16620); settings: compound 1.0 µM
Sequence of NTRK2 (human) (Q16620 whole entry, looked up): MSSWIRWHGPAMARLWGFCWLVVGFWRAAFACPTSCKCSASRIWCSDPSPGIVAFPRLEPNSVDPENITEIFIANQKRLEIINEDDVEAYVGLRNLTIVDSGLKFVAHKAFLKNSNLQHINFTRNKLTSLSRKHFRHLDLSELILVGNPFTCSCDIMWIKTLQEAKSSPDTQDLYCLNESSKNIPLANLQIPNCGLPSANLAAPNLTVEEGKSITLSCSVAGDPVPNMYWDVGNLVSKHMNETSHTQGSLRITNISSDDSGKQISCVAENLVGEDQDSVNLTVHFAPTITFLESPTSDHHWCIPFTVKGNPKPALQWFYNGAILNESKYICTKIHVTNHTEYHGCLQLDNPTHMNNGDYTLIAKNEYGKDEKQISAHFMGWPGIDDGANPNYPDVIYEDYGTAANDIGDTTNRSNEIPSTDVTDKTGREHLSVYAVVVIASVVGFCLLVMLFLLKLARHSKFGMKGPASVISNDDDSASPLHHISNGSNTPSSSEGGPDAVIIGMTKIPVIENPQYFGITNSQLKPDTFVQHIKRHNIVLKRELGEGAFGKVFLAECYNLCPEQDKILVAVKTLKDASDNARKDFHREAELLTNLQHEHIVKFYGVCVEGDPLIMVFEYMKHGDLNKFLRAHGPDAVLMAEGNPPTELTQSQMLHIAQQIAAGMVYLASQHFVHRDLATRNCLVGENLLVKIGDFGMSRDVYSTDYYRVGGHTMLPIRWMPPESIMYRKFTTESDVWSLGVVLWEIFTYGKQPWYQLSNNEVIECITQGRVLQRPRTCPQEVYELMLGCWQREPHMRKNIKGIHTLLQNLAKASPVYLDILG

PHKG2 (human) = PHKG2 (human) (UniProt P15735); settings: compound 1.0 µM
PIK3C2B (human) = PIK3C2B (human) (UniProt O00750); settings: compound 1.0 µM
Sequence of PIK3C2B (human) (O00750 whole entry, looked up): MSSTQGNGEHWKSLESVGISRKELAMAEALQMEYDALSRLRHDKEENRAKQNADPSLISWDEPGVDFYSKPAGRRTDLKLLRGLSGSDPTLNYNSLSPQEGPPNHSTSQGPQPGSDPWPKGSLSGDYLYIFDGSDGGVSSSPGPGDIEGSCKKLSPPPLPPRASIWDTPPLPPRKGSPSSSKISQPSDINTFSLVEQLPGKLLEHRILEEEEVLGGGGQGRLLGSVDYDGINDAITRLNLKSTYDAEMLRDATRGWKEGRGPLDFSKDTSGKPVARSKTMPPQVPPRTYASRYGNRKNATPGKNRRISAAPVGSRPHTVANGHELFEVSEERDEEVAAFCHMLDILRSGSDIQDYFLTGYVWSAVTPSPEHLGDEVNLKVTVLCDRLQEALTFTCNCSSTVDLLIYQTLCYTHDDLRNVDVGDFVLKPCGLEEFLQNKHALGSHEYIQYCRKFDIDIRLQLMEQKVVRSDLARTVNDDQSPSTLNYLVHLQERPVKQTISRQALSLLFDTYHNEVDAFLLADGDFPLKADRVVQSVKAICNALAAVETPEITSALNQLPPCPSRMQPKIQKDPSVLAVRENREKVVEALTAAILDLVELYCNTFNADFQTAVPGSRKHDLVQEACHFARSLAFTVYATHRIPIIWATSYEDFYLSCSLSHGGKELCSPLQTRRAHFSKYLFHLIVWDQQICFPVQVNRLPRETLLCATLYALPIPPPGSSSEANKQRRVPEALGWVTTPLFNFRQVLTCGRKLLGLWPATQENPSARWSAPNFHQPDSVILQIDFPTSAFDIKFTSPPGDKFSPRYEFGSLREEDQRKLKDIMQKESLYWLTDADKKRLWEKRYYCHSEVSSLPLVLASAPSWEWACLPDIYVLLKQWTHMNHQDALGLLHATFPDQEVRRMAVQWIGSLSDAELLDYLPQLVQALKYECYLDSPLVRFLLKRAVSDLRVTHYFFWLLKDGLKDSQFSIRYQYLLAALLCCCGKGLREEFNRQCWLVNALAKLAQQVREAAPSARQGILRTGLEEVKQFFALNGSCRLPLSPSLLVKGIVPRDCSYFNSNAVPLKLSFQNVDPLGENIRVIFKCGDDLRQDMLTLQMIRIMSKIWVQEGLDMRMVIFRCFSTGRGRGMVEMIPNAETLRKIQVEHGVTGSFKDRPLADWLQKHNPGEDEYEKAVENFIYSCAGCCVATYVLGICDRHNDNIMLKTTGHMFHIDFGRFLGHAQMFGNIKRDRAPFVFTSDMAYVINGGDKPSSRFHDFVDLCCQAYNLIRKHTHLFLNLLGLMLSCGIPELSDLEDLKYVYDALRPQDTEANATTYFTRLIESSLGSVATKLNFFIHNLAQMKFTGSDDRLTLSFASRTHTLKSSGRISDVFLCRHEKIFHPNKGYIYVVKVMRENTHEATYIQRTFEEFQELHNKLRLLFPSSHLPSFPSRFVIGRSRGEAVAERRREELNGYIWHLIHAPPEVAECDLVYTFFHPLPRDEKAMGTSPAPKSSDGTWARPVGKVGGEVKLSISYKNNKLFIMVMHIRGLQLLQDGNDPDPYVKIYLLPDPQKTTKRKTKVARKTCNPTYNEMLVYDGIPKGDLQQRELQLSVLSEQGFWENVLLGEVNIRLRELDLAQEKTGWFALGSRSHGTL

[2] = tested on: PIK3CA (human), P42336 [E542K]; settings: compound 1.0 µM
Sequence of PIK3CA (human), P42336 [E542K] (P42336 whole entry E542K, looked up): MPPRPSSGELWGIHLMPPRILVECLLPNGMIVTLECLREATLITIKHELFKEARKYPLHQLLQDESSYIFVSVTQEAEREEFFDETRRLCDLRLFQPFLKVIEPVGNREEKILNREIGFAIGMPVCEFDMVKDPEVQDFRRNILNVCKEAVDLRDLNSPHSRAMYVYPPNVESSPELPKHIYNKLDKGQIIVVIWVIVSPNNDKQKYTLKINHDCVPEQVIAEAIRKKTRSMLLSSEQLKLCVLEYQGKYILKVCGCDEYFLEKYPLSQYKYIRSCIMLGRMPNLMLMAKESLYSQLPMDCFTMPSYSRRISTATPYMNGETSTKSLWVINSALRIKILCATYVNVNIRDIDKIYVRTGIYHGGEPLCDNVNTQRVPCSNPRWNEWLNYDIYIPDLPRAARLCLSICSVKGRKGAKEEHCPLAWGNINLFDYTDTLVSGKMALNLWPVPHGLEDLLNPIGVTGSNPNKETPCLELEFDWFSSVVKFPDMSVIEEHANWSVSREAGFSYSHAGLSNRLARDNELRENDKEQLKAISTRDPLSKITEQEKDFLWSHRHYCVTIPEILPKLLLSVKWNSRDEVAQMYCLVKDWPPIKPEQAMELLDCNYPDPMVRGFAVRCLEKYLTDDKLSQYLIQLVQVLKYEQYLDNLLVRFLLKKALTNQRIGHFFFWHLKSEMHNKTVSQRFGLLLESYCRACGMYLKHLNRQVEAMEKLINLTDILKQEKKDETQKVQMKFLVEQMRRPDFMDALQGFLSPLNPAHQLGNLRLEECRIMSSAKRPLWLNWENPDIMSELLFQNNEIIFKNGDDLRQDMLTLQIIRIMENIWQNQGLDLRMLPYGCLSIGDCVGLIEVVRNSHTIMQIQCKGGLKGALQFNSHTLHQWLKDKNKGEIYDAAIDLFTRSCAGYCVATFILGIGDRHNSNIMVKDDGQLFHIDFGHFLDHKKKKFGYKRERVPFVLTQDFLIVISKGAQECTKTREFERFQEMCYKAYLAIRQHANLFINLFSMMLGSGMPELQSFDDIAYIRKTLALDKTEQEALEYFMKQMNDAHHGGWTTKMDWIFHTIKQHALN

[3] = tested on: PIK3CA (human), P42336 [I800L]; settings: compound 1.0 µM
PLK1 (human) = PLK1 (human) (UniProt P53350); settings: compound 1.0 µM
PRKACB (human) = PRKACB (human) (UniProt P22694); settings: compound 1.0 µM
PRKCE (human) = PRKCE (human) (UniProt Q02156); settings: compound 1.0 µM
PRKCH (human) = PRKCH (human) (UniProt P24723); settings: compound 1.0 µM
RAF1 (human) = RAF1 (human) (UniProt P04049); settings: compound 1.0 µM
[4] = tested on: RET (human), P07949 [V804L]; settings: compound 1.0 µM
RIOK2 (human) = RIOK2 (human) (UniProt Q9BVS4)
Sequence of RIOK2 (human) (Q9BVS4 whole entry, looked up): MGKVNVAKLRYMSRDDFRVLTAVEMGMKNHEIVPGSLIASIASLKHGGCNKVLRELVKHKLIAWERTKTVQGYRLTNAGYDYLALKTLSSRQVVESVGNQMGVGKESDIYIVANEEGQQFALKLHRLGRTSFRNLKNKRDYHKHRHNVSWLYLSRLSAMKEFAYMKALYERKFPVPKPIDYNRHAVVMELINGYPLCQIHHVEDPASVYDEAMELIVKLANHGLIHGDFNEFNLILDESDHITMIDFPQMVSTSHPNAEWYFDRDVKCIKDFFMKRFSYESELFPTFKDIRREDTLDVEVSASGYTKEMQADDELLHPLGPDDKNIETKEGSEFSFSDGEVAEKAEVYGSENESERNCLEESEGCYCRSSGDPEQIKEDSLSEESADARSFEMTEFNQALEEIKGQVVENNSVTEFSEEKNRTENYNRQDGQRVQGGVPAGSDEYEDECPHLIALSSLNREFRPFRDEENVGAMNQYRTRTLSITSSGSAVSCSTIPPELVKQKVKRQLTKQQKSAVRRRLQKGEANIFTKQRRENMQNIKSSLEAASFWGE

RIOK3 (human) = RIOK3 (human) (UniProt O14730); settings: compound 1.0 µM
SLK (human) = SLK (human) (UniProt Q9H2G2); settings: compound 1.0 µM
SRPK2 (human) = SRPK2 (human) (UniProt P78362); settings: compound 1.0 µM
STK10 (human) = STK10 (human) (UniProt O94804); settings: compound 1.0 µM
STK11 (human) = STK11 (human) (UniProt Q15831); settings: compound 1.0 µM
STK3 (human) = STK3 (human) (UniProt Q13188); settings: compound 1.0 µM
TAOK2 (human) = TAOK2 (human) (UniProt Q9UL54); settings: compound 1.0 µM
TBK1 (human) = TBK1 (human) (UniProt Q9UHD2); settings: compound 1.0 µM

CN(C)C/C=C/C(=O)Nc1cccc(C(=O)Nc2ccc(Nc3nccc(-c4cccnc4)n3)cc2)c1
kinase still bound, per cent of control (ADCK3 (human)): 58% | kinase still bound, per cent of control (AKT3 (human)): 100% | kinase still bound, per cent of control (BMPR1B (human)): 43% | kinase still bound, per cent of control (BRAF (human)): 95% | kinase still bound, per cent of control (CAMK1G (human)): 78% | kinase still bound, per cent of control (CAMK2B (human)): 82% | kinase still bound, per cent of control (CAMK4 (human)): 100% | kinase still bound, per cent of control (CAMKK2 (human)): 40% | kinase still bound, per cent of control (CDC42BPA (human)): 100% | kinase still bound, per cent of control (CDK13 (human)): 43% | kinase still bound, per cent of control (CHEK2 (human)): 100% | kinase still bound, per cent of control [1]: 48% | kinase still bound, per cent of control (EPHB4 (human)): 100% | kinase still bound, per cent of control (FGFR2 (human)): 67% | kinase still bound, per cent of control (LIMK1 (human)): 71% | kinase still bound, per cent of control (MAP3K12 (human)): 72% | kinase still bound, per cent of control (MAP3K4 (human)): 88% | kinase still bound, per cent of control (MAPK12 (human)): 78% | kinase still bound, per cent of control (MAPK8 (human)): 0% | kinase still bound, per cent of control (MARK1 (human)): 68% | kinase still bound, per cent of control (MARK3 (human)): 100% | kinase still bound, per cent of control (MLTK (human)): 46% | kinase still bound, per cent of control (NIM1 (human)): 100% | kinase still bound, per cent of control (NTRK2 (human)): 94% | kinase still bound, per cent of control (PHKG2 (human)): 64% | kinase still bound, per cent of control (PIK3C2B (human)): 100% | kinase still bound, per cent of control [2]: 82% | kinase still bound, per cent of control [3]: 98% | kinase still bound, per cent of control (PLK1 (human)): 100% | kinase still bound, per cent of control (PRKACB (human)): 100% | kinase still bound, per cent of control (PRKCE (human)): 61% | kinase still bound, per cent of control (PRKCH (human)): 84% | kinase still bound, per cent of control (RAF1 (human)): 100% | kinase still bound, per cent of control [4]: 100% | Kd (RIOK2 (human)): 30 nM | kinase still bound, per cent of control (RIOK2 (human); compound 1.0 µM): 2.2% | kinase still bound, per cent of control (RIOK3 (human)): 8.3% | kinase still bound, per cent of control (SLK (human)): 100% | kinase still bound, per cent of control (SRPK2 (human)): 70% | kinase still bound, per cent of control (STK10 (human)): 100% | kinase still bound, per cent of control (STK11 (human)): 67% | kinase still bound, per cent of control (STK3 (human)): 87% | kinase still bound, per cent of control (TAOK2 (human)): 54% | kinase still bound, per cent of control (TBK1 (human)): 61%
